We go through one compound from PMC5317004 (Scientific Reports, 2017).

Data set [1] in a line: Time-dependent IVM partitioning into the CHO cell membrane (removal from aqueous phase, absorbance at 245 nm). The format is physicochemical, Chinese hamster. The conditions noted are these: 4 μM IVM, 140,000 CHO cells in 1 ml. As to the method:
Figure 7 Recovery of ACh-evoked currents in the absence or presence of IVM. […] (B) Representative currents for the same experiment as in A, but with IVM (0.5 μM) added after peak IP1. Currents in A and B were measured at −60 mV. […] Red bars correspond to ACh-elicited currents where IVM was added as in panel B (N = 5). Error bars correspond to SEM. Asterisks correspond to unpaired, two-tailed Student’s t-tests with 0.001 < *P < 0.05, 0.0001 < **P < 0.001 and ***P < 0.0001. (D) Fractional removal of IVM from the aqueous phase of a 1-ml solutions containing 140,000 CHO cells and 4 μM IVM. Removal of IVM was determined following the indicated incubation times by measuring the absorbance of supernatants at 245 nm wavelength (e.g., Supplementary Fig. S3; Supplementary Materials and Methods). Note that, no IVM removal is indicated at the top of the y-axis. […]
To assess the IVM partitioning into the CHO cell plasma membrane during a short time period, we followed the procedure of Silberberg et al.[58] with a few modifications accounting for our experimental conditions. To this end, we incubated 140,000 CHO cells (correspond to 3.2 μM plasma membrane lipids[121]) with 4 μM IVM for either 0, 15 or 300 seconds, pelleted the cells by a brief centrifugation (30 seconds), and analyzed the extent of IVM removal from the aqueous solution (elaborated in the Supplementary Materials and Methods). […]

Data set [2] concerns α7-nAChR. The conditions noted are these: cited from earlier work.
For data set [3] the following is noted: LUVs 6 mM, 5 minutes incubation plus 20-minutes ultracentrifugation; depending on the LUVs' lipid composition; cited from earlier work.

Values joined by “and” are separate entries in the source; they are usually repeats but may differ in a detail not shown here. Equal values may be shown once.

`CC[C@H](C)[C@H]1O[C@]2(CC[C@@H]1C)C[C@@H]1C[C@@H](C/C=C(\C)[C@@H](O[C@H]3C[C@H](OC)[C@@H](O[C@H]4C[C@H](OC)[C@@H](O)[C@H](C)O4)[C@H](C)O3)[C@@H](C)/C=C/C=C3\CO[C@@H]4[C@H](O)C(C)=C[C@@H](C(=O)O1)[C@]34O)O2` [IVM, Ivermectin]: the entries for the “IVM removed from the aqueous solution by the CHO cells” value in data set [1] (15 seconds of incubation) and in data set [1] (5 minutes of incubation) were “no statistically significant amount” and roughly 24%, respectively. The “decrease of the ACh-EC50 by IVM” value in data set [2] is listed as 20 fold. Moreover, the “depletion of IVM from the aqueous solution” value in data set [3] is 50% and 70%.
